Experiments:
His-Brd4(44-477) = His-Brd4(44-477) (Homo sapiens (Human), UniProt O60885); assay: TR-FRET in-vitro binding assay for BRD4; conditions: biochemical
Summary of the method: (§1)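 His-tagged BRD2(60-472), BRD3(20-477) or BRD4(44-477), 45 nM in dispensing solution, with 60 nM tetra-acetylated histone H4 peptide (AcK5/8/12/16) in dispensing solution; HEPES pH 7.5, 50 mM NaCl, 0.1% BSA, 30 °C, 35 min. Eu-anti-His6 antibody plus streptavidin-APC added for TR-FRET read-out; 8-point compound dilutions.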

MV-4-11 cells = assay: Cell growth inhibition assay (CellTiter-Glo), MV-4-11; type: cell-based; conditions: Homo sapiens, MV4-11, read-out: MV-4-11 TGI
Method: (§2) Cell Growth Inhibition Assay
(§3) The human leukemia cell lines MV-4-11, THP-1 and K-562 were employed to characterize the effect of BET inhibitors on cellular proliferation and viability. Cells were obtained from the American Type Culture Collection (ATCC) and cultured at 37° C. in a humidified 5% CO2 incubator in the following media: MV-4-11: DMEM high glucose (Animed #1-26F01-I), 10% FCS (Animed #2-01F26-I), 4 mM L-Glutamine (Animed #5-10K50), 1 mM Sodium Pyruvate (Animed # G03625P), 1× Penicillin-Streptomycin (Animed # F12478P); K-562: Iscove's MEM (Animed #1-28F16-I), 10% FCS (Animed #2-01F26-I), 4 mM L-Glutamine (Animed #5-10K50), 1× Penicillin-Streptomycin (Animed # F12478P); THP-1: RPMI-1640 (Animed #1-41F01-I), 10% FCS (Animed #2-01F26-I), 2 mM L-Glutamine (Animed #5-10K50), 10 mM HEPES (Animed #5-31F100), 1 mM Sodium Pyruvate (Animed # G03625P), 1× Penicillin-Streptomycin (Animed # F12478P). The AML lines MV-4-11 and THP-1 are very sensitive to BET inhibitors and show massive cell death upon BET inhibition (Zuber et al., Nature, 478 (2011), 524-8). Compound-mediated suppression of cell proliferation/viability was assessed by quantification of cellular ATP levels using the CellTiter-Glo (CTG) reagent (Promega). Briefly, cells were seeded in 20 μl fresh medium into 384-well plates, followed by addition of 5 μL medium containing compound dilutions at 5-fold their final intended concentration. Dose-response effects were assessed by 3-fold serial dilutions of the test compound, starting at 10 μM. Following incubation of the cells for days at 37° C. and 5% CO2, the effect of inhibitors on cell viability was quantified following addition of 20 μl CTG and luminescence quantification (integration time: 100 ms) as per vendor manual, using a correspondingly equipped Tecan M200 multi-mode platereader (TECAN, Switzerland). For data analysis, the assay background value determined in wells containing medium, but no cells, was subtracted from all data points. To enable differentiation of cytotoxic from cytostatic compounds, the number of viable cells is assessed relative to that observed at the time of compound addition using a separate cell plate (day 0). The effect of a particular test compound concentration on cell proliferation/viability is expressed as percentage of the background- and day 0-corrected luminescence reading obtained for cells treated with vehicle only (DMSO, 0.1% final concentration), which is set as 100%, whereas that luminescence reading for wells containing medium is set as −100%. Compound concentrations leading to half-maximal (IC50) and total growth inhibition (TGI) were determined using standard four parameter curve fitting.

His-Brd3(20-477) = His-Brd3(20-477) (Homo sapiens (Human), UniProt Q15059); assay: TR-FRET in-vitro binding assay for BRD3; conditions: biochemical
Sequence of His-Brd3(20-477) (Q15059 20-477): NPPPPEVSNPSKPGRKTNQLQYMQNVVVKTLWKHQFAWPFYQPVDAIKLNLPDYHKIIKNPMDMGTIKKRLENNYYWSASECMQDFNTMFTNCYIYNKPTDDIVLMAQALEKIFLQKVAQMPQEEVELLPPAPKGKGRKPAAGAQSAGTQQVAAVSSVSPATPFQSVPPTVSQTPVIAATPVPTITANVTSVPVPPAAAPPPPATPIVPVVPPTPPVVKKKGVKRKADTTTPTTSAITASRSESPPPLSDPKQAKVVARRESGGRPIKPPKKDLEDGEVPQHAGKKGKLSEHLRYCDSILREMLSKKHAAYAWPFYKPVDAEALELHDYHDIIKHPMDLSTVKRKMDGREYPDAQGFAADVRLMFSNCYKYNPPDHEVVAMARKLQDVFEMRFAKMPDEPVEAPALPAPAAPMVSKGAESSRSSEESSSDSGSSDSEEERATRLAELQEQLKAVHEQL
Summary of the method: as §1

[1] = target: His-CREBBP (1081-1197) bromodomain (Homo sapiens (Human), UniProt Q92793); assay: AlphaScreen in-vitro binding assay for CREBBP; conditions: biochemical
Sequence of His-CREBBP (1081-1197) bromodomain (Q92793 1081-1197): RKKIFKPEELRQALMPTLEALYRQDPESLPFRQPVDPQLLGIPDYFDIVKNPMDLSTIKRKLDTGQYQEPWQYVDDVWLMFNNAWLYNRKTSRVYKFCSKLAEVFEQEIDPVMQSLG
Summary of the method: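 Ni-chelate acceptor and streptavidin donor beads (45 µg/mL each, in 50 mM HEPES pH 7.5, 150 mM NaCl, 0.02% BSA) were then added for 60 min at room temperature. IC50 came from 8-point non-linear regression.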

THP-1 cells = assay: Cell growth inhibition assay (CellTiter-Glo), THP-1; type: cell-based; conditions: Homo sapiens, read-out: THP-1 TGI
Method: as §2, §3

His-Brd2(60-472) = His-Brd2(60-472) (Homo sapiens (Human), UniProt P25440); assay: TR-FRET in-vitro binding assay for BRD2; conditions: biochemical
Sequence of His-Brd2(60-472) (P25440 60-472): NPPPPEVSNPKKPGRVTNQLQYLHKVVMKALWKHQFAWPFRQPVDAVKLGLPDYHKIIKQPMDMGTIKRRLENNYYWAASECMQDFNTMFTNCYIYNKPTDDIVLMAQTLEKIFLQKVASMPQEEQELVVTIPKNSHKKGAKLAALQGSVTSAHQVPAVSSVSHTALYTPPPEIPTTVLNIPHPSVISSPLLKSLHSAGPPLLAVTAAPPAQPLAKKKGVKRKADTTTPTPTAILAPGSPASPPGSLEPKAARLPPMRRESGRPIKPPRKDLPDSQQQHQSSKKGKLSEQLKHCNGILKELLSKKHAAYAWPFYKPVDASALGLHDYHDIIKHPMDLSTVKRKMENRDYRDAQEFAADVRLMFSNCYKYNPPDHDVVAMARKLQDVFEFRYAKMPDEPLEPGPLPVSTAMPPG
Summary of the method: as §1

K-562 cells = assay: Cell growth inhibition assay (CellTiter-Glo), K-562; type: cell-based, human; conditions: Homo sapiens, K562, read-out: K-562 TGI
Method: as §2, §3

Row | Compound | IC50 (His-Brd4(44-477)) | IC50 (His-Brd3(20-477)) | IC50 [1] | IC50 (His-Brd2(60-472)) | IC (total growth inhibition) (MV-4-11 cells) | IC (total growth inhibition) (THP-1 cells) | IC (total growth inhibition) (K-562 cells)
1 | Cc1cc(N2C(=O)c3c(cnn3C(C)C)C2c2ccc(Cl)cc2)cn(C)c1=O (centres unmarked) [Example 36, 4-(4-chlorophenyl)-5-(1,5-dimethyl-6-oxo-1,6-dihydropyridin-3-yl)-1-isopropyl-4,5-dihydropyrrolo[3,4-c]pyrazol-6(1H)-one] | 66 nM | 59 nM | 3600 nM | 57 nM | 0.0927 µM | 0.191 µM | > 10 µM
2 | Cc1nn(C2CC2)c2c1C(c1ccc(Cl)cc1)N(c1cc(C)c3nnc(C)n3c1)C2=O (centres unmarked) [Example 92, 4-(4-chlorophenyl)-1-cyclopropyl-5-(3,8-dimethyl-[1,2,4]triazolo[4,3-a]pyridin-6-yl)-3-methyl-4,5-dihydropyrrolo[3,4-c]pyrazol-6(1H)-one] |  | 27 nM | 14900 nM |  | 0.0175 µM | 0.0395 µM | > 10 µM
3 | COc1nccc(-n2nc(C)c3c2C(=O)N(c2cc(C)c(=O)n(C)c2)C3c2ccc(Cl)cc2)n1 (centres unmarked) [Example 59, 4-(4-chlorophenyl)-5-(1,5-dimethyl-6-oxo-1,6-dihydropyridin-3-yl)-1-(2-methoxypyrimidin-4-yl)-3-methyl-4,5-dihydropyrrolo[3,4-c]pyrazol-6(1H)-one] | 390 nM | 480 nM | 7300 nM | 610 nM | 0.325 µM | 0.598 µM | > 10 µM
4 | Cc1nn(C2CC2)c2c1[C@@H](c1ccc(Cl)cc1)N(c1cc(C)c3nnc(C)n3c1)C2=O [Example 119, (R)-4-(4-chlorophenyl)-1-cyclopropyl-5-(3,8-dimethyl-[1,2,4]triazolo[4,3-a]pyridin-6-yl)-3-methyl-4,5-dihydropyrrolo[3,4-c]pyrazol-6(1H)-one] |  | 17 nM | 8900 nM |  | 0.0116 µM | 0.0226 µM | > 10 µM
5 | Cc1cc(N2C(=O)c3c(c(CF)nn3C3CC3)C2c2ccc(Cl)cc2)cn2c(C)nnc12 (centres unmarked) [Example 159, 4-(4-chlorophenyl)-1-cyclopropyl-5-(3,8-dimethyl-[1,2,4]triazolo[4,3-a]pyridin-6-yl)-3-(fluoromethyl)-4,5-dihydropyrrolo[3,4-c]pyrazol-6(1H)-one] | 46 nM | 50 nM | 6600 nM |  | 0.0812 µM | 0.0855 µM | > 10 µM
6 | Cc1nn(C2CC2)c2c1C(c1ccc(Cl)cc1)N(c1cn(C)c(=O)c3[nH]ccc13)C2=O (centres unmarked) [Example 160, 4-(4-(4-chlorophenyl)-1-cyclopropyl-3-methyl-6-oxopyrrolo[3,4-c]pyrazol-5(1H,4H,6H)-yl)-6-methyl-1H-pyrrolo[2,3-c]pyridin-7(6H)-one] | 30 nM | 52 nM | 4400 nM |  | 0.102 µM | 0.107 µM | > 10 µM
7 | COc1ncc(-n2nc3c(c2C(C)C)[C@H](c2ccc(Cl)cc2)N(c2cc(C)c4onc(C)c4c2)C3=O)c(OC)n1 [Example 61, (S)-4-(4-chlorophenyl)-2-(2,4-dimethoxypyrimidin-5-yl)-5-(3,7-dimethylbenzo[d]isoxazol-5-yl)-3-isopropyl-4,5-dihydropyrrolo[3,4-c]pyrazol-6(2H)-one] | > 37000 nM | > 37000 nM | > 37000 nM |  | 1.09 µM | > 10 µM | > 10 µM
8 | COCc1nn(C2CC2)c2c1[C@@H](c1ccc(Cl)cc1)N(c1cc(C)c3nnc(C)n3c1)C2=O [Example 163, […]] | < 11 nM |  | 11000 nM |  | 0.022 µM | 0.0461 µM | > 10 µM

Continued, in another order:

Row | IC50 (His-Brd4(44-477)) | IC50 (His-Brd3(20-477)) | IC50 [1] | IC50 (His-Brd2(60-472)) | Compound | IC (total growth inhibition) (MV-4-11 cells) | IC (total growth inhibition) (THP-1 cells) | IC (total growth inhibition) (K-562 cells)
9 | 16 nM | 30 nM | 11000 nM |  | COc1ccccc1-n1nc(C)c2c1C(=O)N(c1cc(C)c3nnc(C)n3c1)C2c1ccc(F)cc1F (centres unmarked) [Example 177, 4-(2,4-difluorophenyl)-5-(3,8-dimethyl-[1,2,4]triazolo[4,3-a]pyridin-6-yl)-1-(2-methoxyphenyl)-3-methyl-4,5-dihydropyrrolo[3,4-c]pyrazol-6(1H)-one] | 0.114 µM | 0.153 µM | > 10 µM
10 |  |  | 5100 nM |  | Cc1cc(N2C(=O)c3c(c(C4CC4)nn3C)[C@H]2c2ccc(Cl)cc2)cn2c(C)nnc12 [Example 164, (R)-4-(4-chlorophenyl)-3-cyclopropyl-5-(3,8-dimethyl-[1,2,4]triazolo[4,3-a]pyridin-6-yl)-1-methyl-4,5-dihydropyrrolo[3,4-c]pyrazol-6(1H)-one] | 0.0118 µM | 0.0173 µM | > 10 µM
11 | 95 nM | 90 nM | 3900 nM | 92 nM | Cc1nn(C2CC2)c2c1C(c1ccc(Cl)cc1F)N(c1cc(C)c(=O)n(C)c1)C2=O (centres unmarked) [Example 179, 4-(4-chloro-2-fluorophenyl)-1-cyclopropyl-5-(1,5-dimethyl-6-oxo-1,6-dihydropyridin-3-yl)-3-methyl-4,5-dihydropyrrolo[3,4-c]pyrazol-6(1H)-one] | 0.12 µM | 0.272 µM | > 10 µM
12 | 140 nM | 93 nM | 1500 nM | 140 nM | CCn1nc2c(c1C)C(c1ccc(Cl)cc1F)N(c1cc(C)c(=O)n(C)c1)C2=O (centres unmarked) [Example 171, 4-(4-chloro-2-fluorophenyl)-5-(1,5-dimethyl-6-oxo-1,6-dihydropyridin-3-yl)-2-ethyl-3-methyl-4,5-dihydropyrrolo[3,4-c]pyrazol-6(2H)-one] | 0.174 µM | 0.297 µM | > 10 µM
13 | 82 nM | 75 nM | > 24000 nM |  | Cc1n[nH]c2c1C(c1ccc(Cl)cc1F)N(c1cc(C)c3nnc(C)n3c1)C2=O (centres unmarked) [Example 183, 4-(4-chloro-2-fluorophenyl)-5-(3,8-dimethyl-[1,2,4]triazolo[4,3-a]pyridin-6-yl)-3-methyl-4,5-dihydropyrrolo[3,4-c]pyrazol-6(2H)-one] | 0.126 µM | 0.314 µM | > 10 µM
14 | 27 nM | 42 nM | 33000 nM |  | COc1ccccc1-n1nc(C)c2c1C(=O)N(c1cc(C)c3nnc(C)n3c1)C2c1ccc(Cl)cc1F (centres unmarked) [Example 187, 4-(4-chloro-2-fluorophenyl)-5-(3,8-dimethyl-[1,2,4]triazolo[4,3-a]pyridin-6-yl)-1-(2-methoxyphenyl)-3-methyl-4,5-dihydropyrrolo[3,4-c]pyrazol-6(1H)-one] | 0.209 µM | 0.223 µM | > 10 µM
